Results as given in patent publication US12168012B2, “NLRP3 inflammasome inhibitors” (Novartis AG, priority 2018, dated 2024).

Key:
[1] = tested on: NLRP3 inflammasome; assay: IL-1β secretion assay; assay type: cell-based; conditions: Homo sapiens, THP-1, 3 h, PMA-differentiated THP-1 cells, 15 μM nigericin, HTRF
Summary of the method: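 PMA-differentiated THP-1 cells stimulated with nigericin to trigger NLRP3-dependent IL-1β secretion, measured by HTRF after 3 h. Viability/pyroptosis monitored with PrestoBlue. IC50 from logistic fit of % inhibition vs concentration with Hill coefficient.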

[2] = tested on: NF-kB-dependent TNF-α secretion; assay: TNF-α secretion assay (counterscreen); assay type: cell-based; conditions: Homo sapiens; THP-1 cells, Pam3CSK4-stimulated, 3 hours, HTRF
Summary of the method: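 Undifferentiated THP-1 cells, rested overnight, given compound then stimulated with 1 μg/mL LPS or 100 ng/mL Pam3CSK4 for 3 hours. Supernatant TNF-α measured by HTRF; IC50 from four-parameter logistic fit of % inhibition versus concentration, with viability monitored.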

SMILES | IC50 [1] [nM] | IC50 [2] [µM]
CC(C)c1nn(CC(=O)N[C@H]2C[C@@](C)(O)C2)c(=O)c2cc3sc(Cl)cc3n12 [Ex 72, 2-(2-Chloro-5-isopropyl-8-oxothieno[2′,3′:4,5]pyrrolo[1,2-d][1,2,4]triazin-7(8H)-yl)-N-((1s,3s)-3-hydroxy-3-methylcyclobutyl)acetamide] | 0.4 | > 100
CC(C)c1nn(CC(=O)NC23CCC(O)(CC2)CC3)c(=O)c2cc3sc(Cl)cc3n12 [Ex 76, 2-(2-Chloro-5-isopropyl-8-oxothieno[2′,3′:4,5]pyrrolo[1,2-d][1,2,4]triazin-7(8H)-yl)-N-(4-hydroxybicyclo[2.2.2]octan-1-yl)acetamide] | 45.1 | > 100
CC(C)c1nn(CC(=O)NCCC(C)(C)O)c(=O)c2cc3sc(Cl)cc3n12 [Ex 77, 2-(2-Chloro-5-isopropyl-8-oxothieno[2′,3′:4,5]pyrrolo[1,2-d][1,2,4]triazin-7(8H)-yl)-N-(3-hydroxy-3-methylbutyl)acetamide] | 14 | > 100
CC(C)(O)c1nn(CC(=O)N[C@@H]2CCCNC2)c(=O)c2cc3sc(Cl)cc3n12 [Ex 79, (R)-2-(2-Chloro-5-(2-hydroxypropan-2-yl)-8-oxothieno[2′,3′:4,5]pyrrolo[1,2-d][1,2,4]triazin-7(8H)-yl)-N-(piperidin-3-yl)acetamide] | 244 | > 100
CC(C)(O)c1nn(CC(=O)N[C@@H]2CCC[C@H](O)C2)c(=O)c2cc3sc(Cl)cc3n12 [Ex 81, 2-(2-Chloro-5-(2-hydroxypropan-2-yl)-8-oxothieno[2′,3′:4,5]pyrrolo[1,2-d][1,2,4]triazin-7(8H)-yl)-N-((1R,3S)-3-hydroxycyclohexyl)acetamide] | 3.9 | > 100
CC(C)(O)c1nn(CC(=O)N[C@@H]2CCCN(CC(F)(F)F)C2)c(=O)c2cc3sc(Cl)cc3n12 [Ex 82, (R)-2-(2-Chloro-5-(2-hydroxypropan-2-yl)-8-oxothieno[2′,3′:4,5]pyrrolo[1,2-d][1,2,4]triazin-7(8H)-yl)-N-(1-(2,2,2-trifluoroethyl)piperidin-3-yl)acetamide] | 42.2 | > 100
CC(C)(O)c1nn(CC(=O)N[C@@H]2CCC[C@@](C)(O)C2)c(=O)c2cc3sc(Cl)cc3n12 [Ex 83, 2-(2-Chloro-5-(2-hydroxypropan-2-yl)-8-oxothieno[2′,3′:4,5]pyrrolo[1,2-d][1,2,4]triazin-7(8H)-yl)-N-((1R,3R)-3-hydroxy-3-methylcyclohexyl)acetamide] | 16.2 | > 100
CC(C)c1nn(CC(=O)N[C@@H]2CCCNC2)c(=O)c2cc3scnc3n12 [Ex 88, (R)-2-(5-Isopropyl-8-oxothiazolo[5′,4′:4,5]pyrrolo[1,2-d][1,2,4]triazin-7(8H)-yl)-N-(piperidin-3-yl)acetamide] | 27.5 | > 100
CC(C)c1nn(CC(=O)N[C@@H]2CCCN(CCF)C2)c(=O)c2cc3scnc3n12 [Ex 89, (R)-N-(1-(2-Fluoroethyl)piperidin-3-yl)-2-(5-isopropyl-8-oxothiazolo[5′,4′:4,5]pyrrolo[1,2-d][1,2,4]triazin-7(8H)-yl)acetamide] | 24.8 | > 100
CC(C)c1nn(CC(=O)N[C@@H]2CCC[C@@](C)(O)C2)c(=O)c2cc3scnc3n12 [Ex 90, N-((1R,3R)-3-Hydroxy-3-methylcyclohexyl)-2-(5-isopropyl-8-oxothiazolo[5′,4′:4,5]pyrrolo[1,2-d][1,2,4]triazin-7(8H)-yl)acetamide] | 60.8 | > 100
CC(C)c1nn(CC(=O)N[C@@H]2CCC[C@H](O)C2)c(=O)c2cc3scnc3n12 [Ex 91, N-((1R,3S)-3-Hydroxycyclohexyl)-2-(5-isopropyl-8-oxothiazolo[5′,4′:4,5]pyrrolo[1,2-d][1,2,4]triazin-7(8H)-yl)acetamide] | 1.9 | > 100
Cc1nc2c(cc3c(=O)n(CC(=O)NC4CC4)nc(C(C)C)n32)s1 [Ex 96, N-Cyclopropyl-2-(5-isopropyl-2-methyl-8-oxothiazolo[5′,4′:4,5]pyrrolo[1,2-d][1,2,4]triazin-7(8H)-yl)acetamide] | 1040 | > 33
CC(C)c1nn(CC(=O)N[C@H]2CCOC2)c(=O)c2cc3sc(Cl)cc3n12 [Ex 99, (S)-2-(2-Chloro-5-isopropyl-8-oxothieno[2′,3′:4,5]pyrrolo[1,2-d][1,2,4]triazin-7(8H)-yl)-N-(tetrahydrofuran-3-yl)acetamide] | 537 | > 100
CC(C)c1nn(CC(=O)N[C@@H]2CCOC2)c(=O)c2cc3sc(Cl)cc3n12 [Ex 100, (R)-2-(2-Chloro-5-isopropyl-8-oxothieno[2′,3′:4,5]pyrrolo[1,2-d][1,2,4]triazin-7(8H)-yl)-N-(tetrahydrofuran-3-yl)acetamide] | 182 | > 100
CC(C)c1nn(CC(=O)N[C@@H]2CCNC2)c(=O)c2cc3sc(Cl)cc3n12 [Ex 103, (R)-2-(2-Chloro-5-isopropyl-8-oxothieno[2′,3′:4,5]pyrrolo[1,2-d][1,2,4]triazin-7(8H)-yl)-N-(pyrrolidin-3-yl)acetamide] | 190 | > 100
CC(C)c1nn(CC(=O)NC2(CO)CC2)c(=O)c2cc3sc(Cl)cc3n12 [Ex 111, 2-(2-Chloro-5-isopropyl-8-oxothieno[2′,3′:4,5]pyrrolo[1,2-d][1,2,4]triazin-7(8H)-yl)-N-(1-(hydroxymethyl)cyclopropyl)acetamide] | 111 | > 100
COC(=O)C12CC(NC(=O)Cn3nc(C(C)C)n4c(cc5sc(Cl)cc54)c3=O)(C1)C2 [Ex 113, Methyl 3-(2-(2-chloro-5-isopropyl-8-oxothieno[2′,3′:4,5]pyrrolo[1,2-d][1,2,4]triazin-7(8H)-yl)acetamido)bicyclo[1.1.1]pentane-1-carboxylate] | 5.8 | > 100
CC(C)c1nn(CC(=O)NC23CC4CC(CC(O)(C4)C2)C3)c(=O)c2cc3sc(Cl)cc3n12 [Ex 114, 2-(2-Chloro-5-isopropyl-8-oxothieno[2′,3′:4,5]pyrrolo[1,2-d][1,2,4]triazin-7(8H)-yl)-N-((1S,3R,5S)-3-hydroxyadamantan-1-yl)acetamide] | 298 | > 11
CC(C)c1nn(CC(=O)NC23CC(N)(C2)C3)c(=O)c2cc3sc(Cl)cc3n12 [Ex 115, N-(3-Aminobicyclo[1.1.1]pentan-1-yl)-2-(2-chloro-5-isopropyl-8-oxothieno[2′,3′:4,5]pyrrolo[1,2-d][1,2,4]triazin-7(8H)-yl)acetamide] | 172 | > 100
CC(C)c1nn(CC(=O)N[C@@H]2CCCN(C3CC3)C2)c(=O)c2cc3sc(Cl)cc3n12 [Ex 124, (R)-2-(2-Chloro-5-isopropyl-8-oxothieno[2′,3′:4,5]pyrrolo[1,2-d][1,2,4]triazin-7(8H)-yl)-N-(1-cyclopropylpiperidin-3-yl)acetamide] | 0.9 | > 100
CC(C)c1nn(CC(=O)N[C@@H]2CCCN(C3CC3)C2)c(=O)c2cc3scnc3n12 [Ex 127, (R)-N-(1-Cyclopropylpiperidin-3-yl)-2-(5-isopropyl-8-oxothiazolo[5′,4′:4,5]pyrrolo[1,2-d][1,2,4]triazin-7(8H)-yl)acetamide] | 4.2 | > 100
